Measurements reported in ChEMBL document CHEMBL2412995, “Design, synthesis and in vitro evaluation against human cancer cells of 5-methyl-5-styryl-2,5-dihydrofuran-2-ones, a new series of goniothalamin analogues” (2013).

Tests used:
Assay type in all cases: functional
[1] = Antiproliferative activity against human NCI-ADR-RES cells assessed as concentration required for total cell growth inhibition after 48 hrs by SRB assay
[2] = tested on: MCF7; experiment: Antiproliferative activity against human MCF7 cells assessed as concentration required for total cell growth inhibition after 48 hrs by SRB assay; conditions: MCF7, 48 h
[3] = tested on: U-251; experiment: Antiproliferative activity against human U251 cells assessed as concentration required for total cell growth inhibition after 48 hrs by SRB assay; conditions: U-251, 48 h
[4] = tested on: UACC-62; experiment: Antiproliferative activity against human UACC62 cells assessed as concentration required for total cell growth inhibition after 48 hrs by SRB assay; conditions: UACC-62, 48 h
[5] = tested on: HaCaT; experiment: Antiproliferative activity against human HaCaT cells assessed as concentration required for total cell growth inhibition after 48 hrs by SRB assay
[6] = tested on: HT-29; experiment: Antiproliferative activity against human HT-29 cells assessed as concentration required for total cell growth inhibition after 48 hrs by SRB assay; conditions: HT-29, 48 h
[7] = tested on: K562; experiment: Antiproliferative activity against human K562 cells assessed as concentration required for total cell growth inhibition after 48 hrs by SRB assay; conditions: K562, 48 h
[8] = tested on: PC-3; experiment: Antiproliferative activity against human PC3 cells assessed as concentration required for total cell growth inhibition after 48 hrs by SRB assay; conditions: PC-3, 48 h
[9] = tested on: 786-0; experiment: Antiproliferative activity against human 786-0 cells assessed as concentration required for total cell growth inhibition after 48 hrs by SRB assay; conditions: 786-0, 48 h

Compound	TGI [1] [µM]	TGI [2] [µM]	TGI [3] [µM]	TGI [4] [µM]	TGI [5] [µM]	TGI [6] [µM]	TGI [7] [µM]	TGI [8] [µM]	TGI [9] [µM]
CC1(/C=C/c2cccc(O)c2)C=CC(=O)O1 (stereo not given)	647	124	118	108	88.1	97.4	> 1000	98.8	196
CC1(/C=C/c2ccccc2O)C=CC(=O)O1 (stereo not given)	78	46.2	70.9	92.5	57.3	31.3	> 1000	112	136
COc1cccc2c1C(=O)c1c(O)c3c(c(O)c1C2=O)C[C@@](O)(C(=O)CO)C[C@@H]3O[C@H]1C[C@H](N)[C@H](O)[C@H](C)O1 [DOXORUBICIN]	10.3	4.9	2.1	0.2	0.4	3.6	45.5	2.5	1
CC1(/C=C/c2ccc(F)cc2)C=CC(=O)O1 (stereo not given)	25.7	38.5	60.8	55.3	47.5	34.9	> 1000	46.5	101
O=C1C=CC[C@H](/C=C/c2ccccc2)O1 [GONIOTHALAMIN]	14.5	11.2	9.8	17.4	13.4	10	927	9.6	13.9
COc1cc(OC)c(/C=C/C2(C)C=CC(=O)O2)c(OC)c1 (stereo not given)	229	102	193	208	458	127	> 1000	239	459
COc1cc(OC)c(OC)cc1/C=C/C1(C)C=CC(=O)O1 (stereo not given)	158	144	160	127	180	127	> 1000	184	205
COc1cc(/C=C/C2(C)C=CC(=O)O2)cc(OC)c1OC (stereo not given)	123	56.6	125	178	175	390	> 1000	131	116
CC1(/C=C/c2ccccc2)C=CC(=O)O1 (stereo not given)	414	95.3	89.8	97.2	119	123	> 1000	86.9	170
C[C@]1(/C=C/c2ccccc2)CC=CC(=O)O1	107	48	27.5	37.2	50.7	41.1	> 1000	31.7	68.7
CC1(/C=C/c2ccccc2C(F)(F)F)C=CC(=O)O1 (stereo not given)	12.2	13.5	14.1	17.7	12.7	15.8	573	17.9	27.9
COc1ccc(/C=C/C2(C)C=CC(=O)O2)cc1 (stereo not given)	> 1000	183	127	147	316	92.9	> 1000	145	> 1000
COc1cccc(/C=C/C2(C)C=CC(=O)O2)c1 (stereo not given)	48.6	25.3	37.6	55.8	5.7	17	> 1000	31.6	70
CC1(/C=C/c2ccc(O)cc2)C=CC(=O)O1 (stereo not given)	111	69.1	107	55.3	81.2	122	> 1000	138	143
CC1(/C=C/c2ccc(C(F)(F)F)cc2)C=CC(=O)O1 (stereo not given)	9.4	20.4	15.7	15.5	12.1	12.3	652	13.1	34
COc1cc(/C=C/C2(C)C=CC(=O)O2)cc(OC)c1O (stereo not given)	51.6	45.3	40.7	24.6	64.4	19.1	> 1000	131	108
COc1ccc(/C=C/C2(C)C=CC(=O)O2)cc1OC (stereo not given)	111	78.9	192	84.1	838	927	> 1000	176	22.9
COc1ccccc1/C=C/C1(C)C=CC(=O)O1 (stereo not given)	64.5	27	41.1	31	30.8	30.8	860	34.2	35.4
COc1ccc(/C=C/C2(C)C=CC(=O)O2)c(OC)c1 (stereo not given)	151	43.5	62.8	80.1	53.6	57.5	> 1000	63.5	108
COc1ccc(/C=C/C2(C)C=CC(=O)O2)c(OC)c1OC (stereo not given)	349	110	87.2	71.5	217	133	> 1000	90	132
